Article PMC3549253, “Effect of repetitive lysine–tryptophan motifs on the bactericidal activity of antimicrobial peptides” (Amino Acids, 2012)
Where two headings read alike, the source gives them in different places. Residues, ends and D or L forms follow the SMILES beside them. No end group written: not given here.

Legend:
[1] = test system: S. typhimurium CCARM 8009; experiment: microbe, parasite or virus in culture; type: cell-based, Salmonella typhimurium
Text: (§1) Escherichia coli (KCTC 1682), Salmonella typhimurium (KCTC 1926), Pseudomonas aeruginosa (KCTC 1637), Staphylococcus aureus (KCTC 1621), Bacillus subtilis (KCTC 1918), and Listeria monocytogenes (KCTC 3710) were obtained from the Korean Collection for Type Cultures (KCTC). Drug-resistant E. coli strains (CCARM 1229 and CCARM 1238), S. typhimurium strains (CCARM 8007, CCARM 8009, and CCARM 8013), and S. aureus strains (CCARM 3089, CCARM 3090, CCARM 3108, CCARM 3114, and CCARM 3126) were from the Culture Collection of Antibiotic-Resistant Microbes (CCARM) at Seoul Women’s University, Korea.
(§2) The antibacterial activities of the peptides against Gram-negative, Gram-positive and antibiotic-resistant bacterial strains were evaluated using the microbroth dilution method (Park et al. [2003]). Aliquots of culture medium containing bacterial suspensions in mid-logarithmic phase at a concentration of 2 × 10^5 colony forming units (CFU)/ml were added to each well of a multiwell plate containing peptide solution serially diluted 2× in 10 mM sodium phosphate buffer (pH 7.2) or phosphate-buffered saline (PBS, 1.5 mM KH2PO4, 2.7 mM KCl, 8.1 mM Na2HPO4, 150 mM NaCl, pH 7.2). Growth inhibition was evaluated by measuring the absorbance at 620 nm using a Versa-Max microplate Elisa Reader (Molecular Devices Co., Sunnyvale, CA, USA) after 24 h of incubation at 37° C. […] All MIC measurements were the average of 3–4 independent experiments.

[2] = test system: S. typhimurium CCARM 8007; experiment: microbe, parasite or virus in culture; type: cell-based, Salmonella typhimurium
Text: as §1, §2

[3] = test system: S. typhimurium CCARM 8013; experiment: microbe, parasite or virus in culture; type: cell-based, Salmonella typhimurium
Text: as §1, §2

[4] = test system: Listeria monocytogenes (KCTC 3710); type: cell-based; conditions: KCTC 3710, 24 h, pH 7.2
Text: as §1, §2

[5] = test system: Bacillus subtilis (KCTC 1918); type: cell-based; conditions: KCTC 1918, 24 h, pH 7.2
Text: as §1, §2

S. aureus CCARM 3090 = experiment: microbe, parasite or virus in culture; type: cell-based, Staphylococcus aureus
Text: as §1, §2

S. aureus CCARM 3114 = experiment: microbe, parasite or virus in culture; type: cell-based, Staphylococcus aureus
Text: as §1, §2

human red blood cells = experiment: Human red blood cell (hRBC) hemolysis; type: cell-based; conditions: for Hemolysis: 200 μM peptide in PBS pH 7.2, 4 % v/v hRBCs, 60 min at 37° C, absorbance 414 nm, 100 % = 0.1 % Triton X-100, triplicate; for MHC (minimal hemolytic concentration): minimal peptide concentration that produces 10 % hemolysis, hRBCs in PBS
Description: Hemolytic activities of the peptides were assessed using heparinized hRBCs collected from healthy donors. Fresh hRBCs were washed three times by centrifugation at 800×g for 10 min in PBS (pH 7.2) and then resuspended in PBS. The peptides were then dissolved in PBS and added to 100 μl of stock hRBCs suspended in PBS (final RBC concentration, 4 % v/v), after which the samples were incubated with gentle agitation for 60 min at 37° C before centrifugation for 10 min at 800×g. Absorbance of the supernatants was recorded at 414 nm. In addition, control samples for zero hemolysis and 100 % hemolysis were incubated with PBS (A blank) or 0.1 % Triton X-100 (A triton), respectively. Melittin was used as a reference hemolytic peptide. Percent hemolysis was calculated according to the following equation: Each measurement was conducted in triplicate (Kim et al. [2011]).

[6] = test system: Staphylococcus aureus (KCTC 1621); experiment: microbe, parasite or virus in culture; type: cell-based; conditions: pH 7.2
Text: as §1, §2

S. aureus CCARM 3126 = experiment: microbe, parasite or virus in culture
Text: as §1
The antibacterial activities of the peptides against Gram-negative, Gram-positive and antibiotic-resistant bacterial strains were evaluated using the microbroth dilution method (Park et al. [2003]). Aliquots of culture medium containing bacterial suspensions in mid-logarithmic phase at a concentration of 2 × 10^5 colony forming units (CFU)/ml were added to each well of a multiwell plate containing peptide solution serially diluted 2× in 10 mM sodium phosphate buffer (pH 7.2) or phosphate-buffered saline (PBS, 1.5 mM KH2PO4, 2.7 mM KCl, 8.1 mM Na2HPO4, 150 mM NaCl, pH 7.2). Growth inhibition was evaluated by measuring the absorbance at 620 nm using a Versa-Max microplate Elisa Reader (Molecular Devices Co., Sunnyvale, CA, USA) after 24 h of incubation at 37° C.

[7] = test system: Pseudomonas aeruginosa (KCTC 1637); type: cell-based; conditions: KCTC 1637, 24 h, pH 7.2
Text: as §1, §2

S. aureus CCARM 3108 = experiment: microbe, parasite or virus in culture; type: cell-based, Staphylococcus aureus
Text: as §1, §2

S. aureus CCARM 3089 = experiment: microbe, parasite or virus in culture; type: cell-based, Staphylococcus aureus
Text: as §1, §2

E. coli CCARM 1238 = experiment: microbe, parasite or virus in culture; type: cell-based, Escherichia coli
Text: as §1, §2

[8] = test system: Salmonella typhimurium (KCTC 1926); experiment: microbe, parasite or virus in culture; type: cell-based; conditions: pH 7.2
Text: as §1, §2

E. coli CCARM 1229 = experiment: microbe, parasite or virus in culture; type: cell-based, Escherichia coli
Text: as §1, §2

[9] = test system: Escherichia coli (KCTC 1682); experiment: microbe, parasite or virus in culture; type: cell-based; conditions: pH 7.2
Text: as §1, §2

[10] = drug-resistant strain, 10 mM sodium phosphate buffer, pH 7.2, 2 × 10^5 CFU/ml, 24 h at 37° C, average of 3–4 independent experiments, read-out: MIC
[11] = drug-resistant strain, 10 mM sodium phosphate buffer, pH 7.2, 2 × 10^5 CFU/ml, 24 h at 37° C, average of 3–4 independent experiments
[12] = drug-resistant strain, PBS, pH 7.2 (number in parentheses), 2 × 10^5 CFU/ml, 24 h at 37° C, average of 3–4 independent experiments
[13] = Salmonella enterica, drug-resistant strain, 10 mM sodium phosphate buffer, pH 7.2, 2 × 10^5 CFU/ml, 24 h at 37° C, average of 3–4 independent experiments, read-out: MIC

KWKWKWKWKW-NH2 [(KW)5, KWKWKWKWKW-NH2]
12.5 (12.5) μM: MIC [5]
25 µM: MIC [1, 10] | MIC [2, 10] | MIC [3, 10] | MIC (S. aureus CCARM 3090; [10]) | MIC (S. aureus CCARM 3114; [10]) | MIC ([6]; KCTC 1621, 24 h, read-out: MIC) | MIC (S. aureus CCARM 3126; [11])
71%: Hemolysis (human red blood cells)
3.12 (3.12) μM: MIC [4]
50 µM: MHC (minimal hemolytic concentration) (human red blood cells)

KWKWKWKW-NH2 [(KW)4, KWKWKWKW-NH2]
1.56 (1.56) μM: MIC ([8]; KCTC 1926, 24 h)
3.12 (3.12) μM: MIC [7] | MIC [4]
12.5 (12.5) μM: MIC [2, 11] | MIC [2, 12] | MIC (S. aureus CCARM 3090; [11]) | MIC (S. aureus CCARM 3090; [12]) | MIC (S. aureus CCARM 3114; [11]) | MIC (S. aureus CCARM 3114; [12]) | MIC (S. aureus CCARM 3108; [11]) | MIC (S. aureus CCARM 3108; [12]) | MIC (S. aureus CCARM 3089; [11]) | MIC (S. aureus CCARM 3089; [12]) | MIC (E. coli CCARM 1238; [11]) | MIC (E. coli CCARM 1238; [12]) | MIC (S. aureus CCARM 3126; [11]) | MIC (S. aureus CCARM 3126; [12])
210 µM: MHC (minimal hemolytic concentration) (human red blood cells)
8%: Hemolysis (human red blood cells)

Cc1onc(-c2ccccc2)c1C(=O)N[C@@H]1C(=O)N2[C@@H]1SC(C)(C)[C@@H]2C(=O)O [Oxacillin, reference compound]
>200 (>200) μM: MIC (S. aureus CCARM 3090; [12]) | MIC (S. aureus CCARM 3114; [12]) | MIC (S. aureus CCARM 3108; [12]) | MIC (S. aureus CCARM 3089; [12]) | MIC (S. aureus CCARM 3126; [12])
> 200 µM: MIC (S. aureus CCARM 3090; Staphylococcus aureus, CCARM3090, drug-resistant strain, 10 mM sodium phosphate buffer, pH 7.2, 2 × 10^5 CFU/ml, 24 h at 37° C, average of 3–4 independent experiments, read-out: MIC) | MIC (S. aureus CCARM 3114; Staphylococcus aureus, CCARM3114, drug-resistant strain, 10 mM sodium phosphate buffer, pH 7.2, 2 × 10^5 CFU/ml, 24 h at 37° C, average of 3–4 independent experiments, read-out: MIC) | MIC (S. aureus CCARM 3108; Staphylococcus aureus, CCARM3108, drug-resistant strain, 10 mM sodium phosphate buffer, pH 7.2, 2 × 10^5 CFU/ml, 24 h at 37° C, average of 3–4 independent experiments, read-out: MIC) | MIC (S. aureus CCARM 3089; Staphylococcus aureus, CCARM3089, drug-resistant strain, 10 mM sodium phosphate buffer, pH 7.2, 2 × 10^5 CFU/ml, 24 h at 37° C, average of 3–4 independent experiments, read-out: MIC) | MIC (S. aureus CCARM 3126; Staphylococcus aureus, CCARM3126, 24 h, pH 7.2)
12.5 µM: MIC ([6]; Staphylococcus aureus, KCTC1621, 10 mM sodium phosphate buffer, 2 × 10^5 CFU/ml, 24 h at 37° C, average of 3–4 independent experiments, read-out: MIC)

NCCCC[C@H](NC(=O)[C@H](Cc1c[nH]c2ccccc12)NC(=O)[C@@H](N)CCCCN)C(=O)N[C@@H](Cc1c[nH]c2ccccc12)C(N)=O [(KW)2, KWKW-NH2] (H-KWKW-NH2)
200 (>200) μM: MIC [4]
>200 (>200) μM: MIC ([1]; CCARM 8009, 24 h, pH 7.2) | MIC ([2]; CCARM 8007, 24 h, pH 7.2) | MIC ([3]; CCARM 8013, 24 h, pH 7.2) | MIC [7] | MIC [5] | MIC (S. aureus CCARM 3090; CCARM 3090, 24 h, pH 7.2) | MIC (S. aureus CCARM 3114; CCARM 3114, 24 h, pH 7.2) | MIC (S. aureus CCARM 3108; CCARM 3108, 24 h, pH 7.2) | MIC (S. aureus CCARM 3089; CCARM 3089, 24 h, pH 7.2) | MIC (E. coli CCARM 1229; CCARM 1229, 24 h, pH 7.2) | MIC (E. coli CCARM 1238; CCARM 1238, 24 h, pH 7.2) | MIC ([6]; KCTC 1621, 24 h) | MIC ([9]; KCTC 1682, 24 h)
550 µM: MHC (minimal hemolytic concentration) (human red blood cells)

CC1(C)S[C@@H]2[C@H](NC(=O)[C@H](N)c3ccccc3)C(=O)N2[C@H]1C(=O)O [Ampicillin, reference compound]
> 200 µM: MIC [1, 13] | MIC [2, 13] | MIC [3, 13] | MIC (E. coli CCARM 1229; Escherichia coli, CCARM1229, drug-resistant strain, 10 mM sodium phosphate buffer, pH 7.2, 2 × 10^5 CFU/ml, 24 h at 37° C, average of 3–4 independent experiments, read-out: MIC) | MIC (E. coli CCARM 1238; Escherichia coli, CCARM1238, drug-resistant strain, 10 mM sodium phosphate buffer, pH 7.2, 2 × 10^5 CFU/ml, 24 h at 37° C, average of 3–4 independent experiments, read-out: MIC)
25 µM: MIC ([8]; Salmonella enterica, 10 mM sodium phosphate buffer, 2 × 10^5 CFU/ml, 24 h at 37° C, average of 3–4 independent experiments, read-out: MIC)
50 µM: MIC ([9]; Escherichia coli, KCTC1682, 24 h)
>200 (>200) μM: MIC [1, 12] | MIC [2, 12] | MIC [3, 12] | MIC (E. coli CCARM 1229; [12]) | MIC (E. coli CCARM 1238; [12])

KWKWKW-NH2 [(KW)3, KWKWKW-NH2]
200 µM: MIC (S. aureus CCARM 3126; [12])
350 µM: MHC (minimal hemolytic concentration) (human red blood cells)
50 µM: MIC (S. aureus CCARM 3126; [11])
